Test results taken from patent US20050031679A1, “Method for producing liposomal formulations of active ingredients” (priority 1998, published 2005).

Assay: Efficiency of inclusion of active ingredient added subsequently to a finished liposome gel
Assay type: physicochemical
Text: This object is achieved by a method for producing liposomes which comprise as active ingredient at least one physiologically active or/and diagnostic compound, by production of a mixture of membrane-forming amphiphiles, dispersion of the mixture in water and high pressure homogenization of the dispersion until the liposomes are formed, which comprises • (a) adding the active ingredient to any liposome preparation, preferably a liposome gel, which contains at least 20% by weight lipid, and • (b) incubating the active ingredient-containing mixture, where appropriate with mechanical agitation, until • (i) hydrophilic active ingredients are distributed in the liposomes and between the liposomes in accordance with the proportions by volume of aqueous medium inside and outside the liposomes in the preparation (equilibrium state) or • (ii) lipophilic compounds are incorporated in the lipid bilayer, or • (iii) amphiphilic compounds have surmounted the lipid bilayer and are incorporated or associated in the outer regions of the lipid bilayer.
A liposome gel which contains the cytostatic gemcitabine as active component cannot be autoclaved because this antitumor agent promotes the hydrolysis of the phospholipids, leading to complete phospholipid degradation under standard conditions during autoclaving. […]

Row | efficiency of inclusion (added as solid substance to the liposome gel, incubated with shaking at 50° C. for 3 hours) | efficiency of inclusion (autoclaved liposome gel mixed with concentrated buffered gemcitabine solution, incubation at 60° C. for four hours (equilibrium)) | SMILES
1 | 95% | – | C[C@@H]1[C@H](O)[C@@H](C)/C=C/C=C/C=C/C=C/C=C/C=C/C=C/[C@H](O[C@@H]2O[C@H](C)[C@@H](O)[C@H](N)[C@@H]2O)C[C@@H]2O[C@](O)(C[C@@H](O)C[C@@H](O)[C@H](O)CC[C@@H](O)C[C@@H](O)CC(=O)O[C@H]1C)C[C@H](O)[C@H]2C(=O)O [amphotericin B]
2 | – | more than 30% | Nc1ccn([C@@H]2O[C@H](CO)[C@@H](O)C2(F)F)c(=O)n1 [gemcitabine]
